PubChem BioAssay AID2060892 (Molecular Pharmacology Branch, DTP, NCI, 2025)

Test system: HOP-62 complex spheroids with HUVEC/MSC, viability
Assay: Anticancer human tumor HOP-62 cell line growth inhibition [RAS];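 note: spheroids exposed to agents for seven days before readout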;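 for viability, T/C: 100% = DMSO vehicle control viability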
Conditions: for IC50: curve of first compound; for viability, T/C: stronger effect = lower value
Text: RAS pathway inhibitors in Combinations in Complex Spheroids
A high-throughput screen of multi-cell type tumor spheroids was designed to identify active combinations of RAS pathway inhibitors and targeted small molecules. Complex spheroids include a stromal component modeled by human endothelial cells (HUVEC) and fibroblasts modeled by human mesenchymal stem cells (MSCs). The concentration ranges selected for each drug and investigational agent were based upon clinically achievable concentrations if the clinical Cmax of the agent was known.
Compounds. The drugs and investigational agents: abemaciclib (NSC768073), cobimetinib (NSC768068), divarasib (GDC6063, NSC841802), docetaxel (NSC628503), GDC-1971 (RLY-1971, NSC841576), gemcitabine (NSC613327), inavolisib (NSC800729), ipatasertib (NSC767898), KB-0742 (NSC834161), MRTX-1133 (NSC836407), osimertinib (NSC779217), RMC-4630 (NSC839698), RMC-6236 (NSC851965), RMC-6291 (NSC852671), Ro-3306 (NSC812927), sapanisertib (NSC764658), SN-38 (NSC673596), staurosporine (NSC755774), SY5609 (NSC837396), and tovorafenib (DAY101, NSC766906), were obtained from the National Cancer Institute (NCI) Developmental Therapeutics Program Chemical Repository. The FDA-approved anticancer drug set is available from the NCI Developmental Therapeutics Program. […] The stock solutions were prepared in dimethyl sulfoxide (DMSO, Sigma-Aldrich, St. Louis, MO, cat. D2650) at 800-fold the tested concentration and stored at -70 degrees C prior to their use. All drugs and investigational agents were tested over a range starting from a high concentration at or near the clinical Cmax and decreasing in half-log increments. If the clinical Cmax for an agent had not been determined, the highest concentration tested was 10 microM.
Cell Culture. All cells were maintained in an incubator at 37 degrees C and 5% CO2 with 95% humidity. The PDC lines were cultured according to standard operating procedures established by the NCI PDMR. All PDCs were thawed and cultured in Matrigel-coated flasks prepared with a working solution of 1X Ham's F-12 nutrient mix, without supplementation (Invitrogen, Waltham, MA, cat. 11765054), 100 U/mL penicillin-streptomycin (Invitrogen, cat. 15140122), and 2.5% Matrigel (Corning Inc., Corning, NY, cat. 354248) for the first three passages. The 362531-283-R-J2-PDC and 782815-120-R-J1-PDC lines were cultured in 6C/Colon 1B media, which includes advanced DMEM/F-12 (Thermo Fisher Scientific, cat. 12634028), 10 mM HEPES (Thermo Fisher Scientific, cat. 15630080), 1X GlutaMAX supplement (Thermo Fisher Scientific, cat. 35050061), 0.1 mg/mL primocin (InvivoGen, San Diego, CA, cat. ant-pm-2), 10% defined fetal bovine serum, heat inactivated (HyClone Laboratories Inc., Logan, UT, cat. SH30070.03HI), 50% L-WRN conditioned media (ATCC, cat. CRL-3276), 1.25 mM N-Acetyl-L-cysteine (Sigma-Aldrich, cat. A9165), 10 mM nicotinamide (Sigma-Aldrich, cat. N0636), 1X B-27 supplement (Thermo Fisher Scientific, cat. 17504044), 1X N-2 supplement (Thermo Fisher Scientific, cat. 17502048), 50 ng/mL human EGF (Thermo Fisher Scientific, cat. PHG0311), and 10 microM Y-27632 dihydrochloride (Tocris Bioscience, cat. 1254). The K12877-001-R-J1-PDC line was cultured in 6I media, which includes all 6C/Colon 1B media plus 10 ng/mL human FGF-10 (PeproTech, cat. 100-26), 1 ng/mL human FGF-2 (PeproTech, cat. 100-18B), 1 µM prostaglandin E2 (Tocris Bioscience, cat. 2296), […] hydrocortisone (Sigma-Aldrich, cat. H4001), and […] bovine insulin (Sigma-Aldrich, cat. I6634). The K86415-001-R-J1-PDC line was cultured in 6D media, which includes all 6C/Colon 1B media components minus the L-WRN conditioned media. The 485176-168-R4-J1-PDC was cultured in PANC media, which includes all 6C/Colon 1B media plus 100 ng/mL human FGF-10 (PeproTech, cat. 100-26), 500 nM SB-431542 (Selleckchem, cat. S1067), and 10 nM gastrin (Tocris Bioscience, cat. 3006). […]

[1] = second compound 0.0316 µM, first compound 0.0316 µM
[2] = second compound 0.0316 µM, first compound 0.1 µM
[3] = second compound 0.0316 µM, first compound 0.316 µM
[4] = second compound 0.0316 µM, first compound 1 µM
[5] = second compound 0.0316 µM, first compound 3.16 µM
[6] = second compound 0.0316 µM, first compound 10 µM
[7] = second compound 0.1 µM, first compound 0.0316 µM
[8] = second compound 0.1 µM, first compound 0.1 µM
[9] = second compound 0.1 µM, first compound 0.316 µM
[10] = second compound 0.1 µM, first compound 1 µM
[11] = second compound 0.1 µM, first compound 3.16 µM
[12] = second compound 0.1 µM, first compound 10 µM
[13] = second compound 0.316 µM, first compound 0.0316 µM
[14] = second compound 0.316 µM, first compound 0.1 µM
[15] = second compound 0.316 µM, first compound 0.316 µM
[16] = second compound 0.316 µM, first compound 1 µM
[17] = second compound 0.316 µM, first compound 3.16 µM
[18] = second compound 0.316 µM, first compound 10 µM
[19] = second compound 1 µM, first compound 0.0316 µM
[20] = second compound 1 µM, first compound 0.1 µM
[21] = second compound 1 µM, first compound 0.316 µM
[22] = second compound 1 µM, first compound 1 µM
[23] = second compound 1 µM, first compound 3.16 µM
[24] = second compound 1 µM, first compound 10 µM
[25] = second compound 3.16 µM, first compound 0.0316 µM
[26] = second compound 3.16 µM, first compound 0.1 µM
[27] = second compound 3.16 µM, first compound 0.316 µM
[28] = second compound 3.16 µM, first compound 1 µM
[29] = second compound 3.16 µM, first compound 3.16 µM
[30] = second compound 3.16 µM, first compound 10 µM
[31] = second compound 10 µM, first compound 0.0316 µM
[32] = second compound 10 µM, first compound 0.1 µM
[33] = second compound 10 µM, first compound 0.316 µM
[34] = second compound 10 µM, first compound 1 µM
[35] = second compound 10 µM, first compound 3.16 µM
[36] = second compound 10 µM, first compound 10 µM

SMILES: CC(C)NCC(C(=O)N1CCN(c2ncnc3c2C(C)CC3O)CC1)c1ccc(Cl)cc1 (stereo unspecified) + C#Cc1c(F)ccc2cc(O)cc(-c3ncc4c(N5CC6CCC(C5)N6)nc(OCC56CCCN5CC(F)C6)nc4c3F)c12
- IC50 (second compound 0.0316 µM): 2.44 µM
- IC50 (second compound 0.1 µM): 2.81 µM
- IC50 (second compound 0.316 µM): 2.73 µM
- IC50 (second compound 1 µM): 1.72 µM
- IC50 (second compound 3.16 µM): 0.676 µM
- IC50 (second compound 10 µM): 0.0621 µM
- viability, T/C [1]: 105%
- viability, T/C [2]: 113%
- viability, T/C [3]: 92.2%
- viability, T/C [4]: 71.2%
- viability, T/C [5]: 44.6%
- viability, T/C [6]: 28.3%
- viability, T/C [7]: 112%
- viability, T/C [8]: 105%
- viability, T/C [9]: 99.2%
- viability, T/C [10]: 70%
- viability, T/C [11]: 49.8%
- viability, T/C [12]: 28.3%
- viability, T/C [13]: 105%
- viability, T/C [14]: 104%
- viability, T/C [15]: 96.3%
- viability, T/C [16]: 73.1%
- viability, T/C [17]: 47.5%
- viability, T/C [18]: 27%
- viability, T/C [19]: 108%
- viability, T/C [20]: 100%
- viability, T/C [21]: 86.5%
- viability, T/C [22]: 59.9%
- viability, T/C [23]: 38.5%
- viability, T/C [24]: 23.5%
- viability, T/C [25]: 72.2%
- viability, T/C [26]: 75%
- viability, T/C [27]: 63.9%
- viability, T/C [28]: 41.6%
- viability, T/C [29]: 26.1%
- viability, T/C [30]: 16.1%
- viability, T/C [31]: 54.3%
- viability, T/C [32]: 47%
- viability, T/C [33]: 35.2%
- viability, T/C [34]: 23%
- viability, T/C [35]: 13.7%
- viability, T/C [36]: 9.15%

SMILES: CC(C)n1nc(-c2ccc3oc(N)nc3c2)c2c(N)ncnc21 + C#Cc1c(F)ccc2cc(O)cc(-c3ncc4c(N5CC6CCC(C5)N6)nc(OCC56CCCN5CC(F)C6)nc4c3F)c12
- IC50 (second compound 0.0316 µM): 0.0278 µM
- IC50 (second compound 0.1 µM): 0.0281 µM
- IC50 (second compound 0.316 µM): 0.0195 µM
- IC50 (second compound 1 µM): 0.0124 µM
- IC50 (second compound 3.16 µM): 0.00375 µM
- IC50 (second compound 10 µM): < 0.000316 µM
- viability, T/C (second compound 0.0316 µM, first compound 0.000316 µM): 99.2%
- viability, T/C (second compound 0.0316 µM, first compound 0.001 µM): 99%
- viability, T/C (second compound 0.0316 µM, first compound 0.00316 µM): 86.8%
- viability, T/C (second compound 0.0316 µM, first compound 0.01 µM): 73.7%
- viability, T/C [1]: 46.3%
- viability, T/C [2]: 28.3%
- viability, T/C (second compound 0.1 µM, first compound 0.000316 µM): 110%
- viability, T/C (second compound 0.1 µM, first compound 0.001 µM): 94.9%
- viability, T/C (second compound 0.1 µM, first compound 0.00316 µM): 83.9%
- viability, T/C (second compound 0.1 µM, first compound 0.01 µM): 69.6%
- viability, T/C [7]: 46.9%
- viability, T/C [8]: 26.7%
- viability, T/C (second compound 0.316 µM, first compound 0.000316 µM): 106%
- viability, T/C (second compound 0.316 µM, first compound 0.001 µM): 99.3%
- viability, T/C (second compound 0.316 µM, first compound 0.00316 µM): 79.3%
- viability, T/C (second compound 0.316 µM, first compound 0.01 µM): 63.1%
- viability, T/C [13]: 41.1%
- viability, T/C [14]: 26.5%
- viability, T/C (second compound 1 µM, first compound 0.000316 µM): 106%
- viability, T/C (second compound 1 µM, first compound 0.001 µM): 89.7%
- viability, T/C (second compound 1 µM, first compound 0.00316 µM): 70%
- viability, T/C (second compound 1 µM, first compound 0.01 µM): 54.6%
- viability, T/C [19]: 36.1%
- viability, T/C [20]: 26.6%
- viability, T/C (second compound 3.16 µM, first compound 0.000316 µM): 76.9%
- viability, T/C (second compound 3.16 µM, first compound 0.001 µM): 67.2%
- viability, T/C (second compound 3.16 µM, first compound 0.00316 µM): 47.6%
- viability, T/C (second compound 3.16 µM, first compound 0.01 µM): 37.5%
- viability, T/C [25]: 35.6%
- viability, T/C [26]: 14.4%
- viability, T/C (second compound 10 µM, first compound 0.000316 µM): 45.7%
- viability, T/C (second compound 10 µM, first compound 0.001 µM): 32.8%
- viability, T/C (second compound 10 µM, first compound 0.00316 µM): 28.2%
- viability, T/C (second compound 10 µM, first compound 0.01 µM): 21.6%
- viability, T/C [31]: 13%
- viability, T/C [32]: 11.6%

SMILES: C[C@@H](NC(=O)c1ncnc(N)c1Cl)c1ncc(C(=O)Nc2cc(C(F)(F)F)c(Cl)cn2)s1 + C#Cc1c(F)ccc2cc(O)cc(-c3ncc4c(N5CC6CCC(C5)N6)nc(OCC56CCCN5CC(F)C6)nc4c3F)c12
- IC50 (second compound 0.0316 µM): > 10 µM
- IC50 (second compound 0.1 µM): > 10 µM
- IC50 (second compound 0.316 µM): > 10 µM
- IC50 (second compound 1 µM): > 10 µM
- IC50 (second compound 3.16 µM): > 10 µM
- IC50 (second compound 10 µM): 0.457 µM
- viability, T/C [1]: 109%
- viability, T/C [2]: 105%
- viability, T/C [3]: 101%
- viability, T/C [4]: 102%
- viability, T/C [5]: 92.6%
- viability, T/C [6]: 78.6%
- viability, T/C [7]: 110%
- viability, T/C [8]: 113%
- viability, T/C [9]: 105%
- viability, T/C [10]: 102%
- viability, T/C [11]: 96.8%
- viability, T/C [12]: 75.4%
- viability, T/C [13]: 114%
- viability, T/C [14]: 101%
- viability, T/C [15]: 96.6%
- viability, T/C [16]: 104%
- viability, T/C [17]: 97.6%
- viability, T/C [18]: 62.8%
- viability, T/C [19]: 117%
- viability, T/C [20]: 97.9%
- viability, T/C [21]: 91.1%
- viability, T/C [22]: 94.1%
- viability, T/C [23]: 88.6%
- viability, T/C [24]: 65.4%
- viability, T/C [25]: 83.2%
- viability, T/C [26]: 78.7%
- viability, T/C [27]: 77.1%
- viability, T/C [28]: 77.4%
- viability, T/C [29]: 73.4%
- viability, T/C [30]: 58.4%
- viability, T/C [31]: 51.9%
- viability, T/C [32]: 46.8%
- viability, T/C [33]: 54.1%
- viability, T/C [34]: 49.9%
- viability, T/C [35]: 43.4%
- viability, T/C [36]: 33.7%
